In patent US10844077B2, “Thiazolyl-containing compounds for treating proliferative diseases” (Dana-Farber Cancer Institute, Inc., priority 2014, dated 2020):
Like-named read-outs stand apart in the source and are kept apart here.

Legend:
Assay type in all cases: cell-based
kinases in BCWM.1 cells [1] = biological target: kinases in BCWM.1 cells (Homo sapiens, UniProt O00750); conditions: PIK3C2B; ATP; 1 μM, 90 min; GF
Method: (§1) The cells were harvested and lysed. […] Bound kinases were identified and quantitated by ACTIVX as described in Patricelli et al., Biochemistry, 2007, 46(2): 350-358. The compounds were tested in duplicates against duplicate or quadruplicate control samples.

kinases in BCWM.1 cells [2] = biological target: kinases in BCWM.1 cells (Homo sapiens, UniProt O15530); conditions: PDK1; Lys1; 1 μM, 90 min; GF
Method: as §1

kinases in BCWM.1 cells [3] = biological target: kinases in BCWM.1 cells (Homo sapiens, UniProt O43318); conditions: TAK1; Lys2; 1 μM, 90 min; GF
Method: as §1

kinases in BCWM.1 cells [4] = biological target: kinases in BCWM.1 cells (Homo sapiens, UniProt O75385); conditions: ULK1; Lys2; 1 μM, 90 min; GF
Method: as §1

kinases in BCWM.1 cells [5] = biological target: kinases in BCWM.1 cells (Homo sapiens, UniProt O95747); conditions: OSR1; Lys2; 1 μM, 90 min; GF
Chain of kinases in BCWM.1 cells (Homo sapiens, UniProt O95747) (O95747 2-527 limits assumed): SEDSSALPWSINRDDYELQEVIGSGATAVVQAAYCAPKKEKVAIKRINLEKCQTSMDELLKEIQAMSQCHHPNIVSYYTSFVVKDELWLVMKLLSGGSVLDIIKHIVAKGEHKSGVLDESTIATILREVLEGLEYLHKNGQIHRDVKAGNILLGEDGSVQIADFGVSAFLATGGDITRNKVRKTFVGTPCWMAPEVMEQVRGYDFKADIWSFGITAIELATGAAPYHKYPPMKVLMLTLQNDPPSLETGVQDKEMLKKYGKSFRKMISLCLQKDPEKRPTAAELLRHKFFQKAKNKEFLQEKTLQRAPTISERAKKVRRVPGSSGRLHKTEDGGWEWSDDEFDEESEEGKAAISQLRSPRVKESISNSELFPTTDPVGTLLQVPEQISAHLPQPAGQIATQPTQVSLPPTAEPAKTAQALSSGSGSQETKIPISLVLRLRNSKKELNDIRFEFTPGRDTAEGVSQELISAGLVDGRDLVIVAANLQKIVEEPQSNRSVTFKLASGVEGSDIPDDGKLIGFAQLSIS
Method: as §1

kinases in BCWM.1 cells [6] = biological target: kinases in BCWM.1 cells (Homo sapiens, UniProt P12931); conditions: SRC; Lys1; 1 μM, 90 min; GF
Chain of kinases in BCWM.1 cells (Homo sapiens, UniProt P12931) (P12931 2-536 limits assumed): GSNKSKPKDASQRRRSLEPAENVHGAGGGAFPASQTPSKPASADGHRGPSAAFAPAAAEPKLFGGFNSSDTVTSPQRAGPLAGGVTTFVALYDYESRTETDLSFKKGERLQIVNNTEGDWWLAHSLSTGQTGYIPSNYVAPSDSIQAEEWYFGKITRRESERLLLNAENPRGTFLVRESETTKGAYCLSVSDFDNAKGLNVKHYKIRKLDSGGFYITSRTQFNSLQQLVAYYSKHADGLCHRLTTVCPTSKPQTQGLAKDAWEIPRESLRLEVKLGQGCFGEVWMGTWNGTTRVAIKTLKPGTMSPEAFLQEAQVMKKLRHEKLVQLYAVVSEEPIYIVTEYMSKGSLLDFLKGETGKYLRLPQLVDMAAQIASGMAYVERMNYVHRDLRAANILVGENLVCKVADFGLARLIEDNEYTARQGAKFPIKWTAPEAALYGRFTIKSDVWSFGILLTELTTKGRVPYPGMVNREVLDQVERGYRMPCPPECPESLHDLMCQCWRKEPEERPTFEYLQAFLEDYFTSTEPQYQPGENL
Method: as §1

kinases in BCWM.1 cells [7] = biological target: kinases in BCWM.1 cells (Homo sapiens, UniProt P15735); conditions: PHKg2; Lys1; 1 μM, 90 min; GF
Method: as §1

kinases in BCWM.1 cells [8] = biological target: kinases in BCWM.1 cells (Homo sapiens, UniProt P19525); conditions: PKR; Lys2; 1 μM, 90 min; GF
Chain of kinases in BCWM.1 cells (Homo sapiens, UniProt P19525) (P19525 2-551 limits assumed): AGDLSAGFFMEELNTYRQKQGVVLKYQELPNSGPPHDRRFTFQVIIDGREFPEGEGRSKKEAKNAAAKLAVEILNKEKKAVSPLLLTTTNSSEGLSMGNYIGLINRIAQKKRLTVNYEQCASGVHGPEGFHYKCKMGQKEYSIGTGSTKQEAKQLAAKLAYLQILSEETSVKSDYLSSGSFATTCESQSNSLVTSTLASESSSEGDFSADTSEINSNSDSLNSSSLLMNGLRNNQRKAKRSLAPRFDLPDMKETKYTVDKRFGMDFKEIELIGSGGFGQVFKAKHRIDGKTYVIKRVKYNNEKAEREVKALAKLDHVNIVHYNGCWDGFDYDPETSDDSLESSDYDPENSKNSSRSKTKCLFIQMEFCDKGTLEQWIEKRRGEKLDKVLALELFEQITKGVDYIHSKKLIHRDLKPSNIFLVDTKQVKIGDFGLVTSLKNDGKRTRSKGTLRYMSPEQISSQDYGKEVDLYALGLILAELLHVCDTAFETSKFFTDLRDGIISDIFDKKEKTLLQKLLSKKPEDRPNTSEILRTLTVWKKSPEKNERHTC
Method: as §1

kinases in BCWM.1 cells [9] = biological target: kinases in BCWM.1 cells (Homo sapiens, UniProt P23443); conditions: p70S6K; Lys2; 1 μM, 90 min; GF
Method: as §1

kinases in BCWM.1 cells [10] = biological target: kinases in BCWM.1 cells (Homo sapiens, UniProt P29597); conditions: TYK2 domain2; Activation Loop; 1 μM, 90 min; GF
Method: as §1

kinases in BCWM.1 cells [11] = biological target: kinases in BCWM.1 cells (Homo sapiens, UniProt P30291); conditions: Wee1; Lys2; 1 μM, 90 min; GF
Method: as §1

kinases in BCWM.1 cells [12] = biological target: kinases in BCWM.1 cells (Homo sapiens, UniProt P42338); conditions: PIK3CB; ATP; 1 μM, 90 min; GF
Method: as §1

kinases in BCWM.1 cells [13] = biological target: kinases in BCWM.1 cells (Homo sapiens, UniProt P42680); conditions: TEC; Activation Loop; 1 μM, 90 min; GF
Method: as §1

kinases in BCWM.1 cells [14] = biological target: kinases in BCWM.1 cells (Homo sapiens, UniProt P43405); conditions: SYK; Activation Loop; 1 μM, 90 min; GF
Method: as §1

kinases in BCWM.1 cells [15] = biological target: kinases in BCWM.1 cells (Homo sapiens, UniProt P51812); conditions: Lys2, 1 μM, 90 min, GF
Method: as §1

kinases in BCWM.1 cells [16] = biological target: kinases in BCWM.1 cells (Homo sapiens, UniProt P51955); conditions: NEK2; Lys2; 1 μM, 90 min; GF
Method: as §1

kinases in BCWM.1 cells [17] = biological target: kinases in BCWM.1 cells (Homo sapiens, UniProt Q15349); conditions: RSK3 domain1; Lys2; 1 μM, 90 min; GF
Method: as §1

kinases in BCWM.1 cells [18] = biological target: kinases in BCWM.1 cells (Homo sapiens, UniProt Q16512); conditions: PKN1; Lys1; 1 μM, 90 min; GF
Chain of kinases in BCWM.1 cells (Homo sapiens, UniProt Q16512) (Q16512 2-942 limits assumed): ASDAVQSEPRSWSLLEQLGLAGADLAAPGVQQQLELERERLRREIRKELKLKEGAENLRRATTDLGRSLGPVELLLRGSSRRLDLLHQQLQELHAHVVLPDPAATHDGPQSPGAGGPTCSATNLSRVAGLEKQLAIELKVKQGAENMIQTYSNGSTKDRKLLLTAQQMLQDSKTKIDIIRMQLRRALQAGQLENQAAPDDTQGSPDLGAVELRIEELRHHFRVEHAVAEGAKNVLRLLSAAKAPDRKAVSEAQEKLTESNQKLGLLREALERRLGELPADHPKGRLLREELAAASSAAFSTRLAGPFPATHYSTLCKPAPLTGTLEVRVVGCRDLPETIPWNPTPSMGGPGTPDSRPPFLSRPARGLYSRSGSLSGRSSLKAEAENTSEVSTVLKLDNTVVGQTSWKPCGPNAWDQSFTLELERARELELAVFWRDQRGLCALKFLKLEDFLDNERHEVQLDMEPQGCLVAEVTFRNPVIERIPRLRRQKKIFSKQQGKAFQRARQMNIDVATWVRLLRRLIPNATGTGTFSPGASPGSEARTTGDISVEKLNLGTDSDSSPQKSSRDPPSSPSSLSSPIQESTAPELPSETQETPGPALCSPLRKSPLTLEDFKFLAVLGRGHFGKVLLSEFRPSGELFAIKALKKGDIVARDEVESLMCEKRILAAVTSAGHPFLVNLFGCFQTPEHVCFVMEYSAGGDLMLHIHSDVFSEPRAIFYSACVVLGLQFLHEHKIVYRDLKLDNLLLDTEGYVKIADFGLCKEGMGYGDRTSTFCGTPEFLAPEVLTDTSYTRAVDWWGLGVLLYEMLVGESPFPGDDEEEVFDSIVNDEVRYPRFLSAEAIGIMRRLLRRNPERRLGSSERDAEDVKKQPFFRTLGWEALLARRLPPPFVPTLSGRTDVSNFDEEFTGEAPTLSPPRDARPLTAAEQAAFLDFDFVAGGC
Method: as §1

kinases in BCWM.1 cells [19] = biological target: kinases in BCWM.1 cells (Homo sapiens, UniProt Q16539); conditions: p38a, 1 μM, 90 min, GF
Chain of kinases in BCWM.1 cells (Homo sapiens, UniProt Q16539) (Q16539 2-360 limits assumed): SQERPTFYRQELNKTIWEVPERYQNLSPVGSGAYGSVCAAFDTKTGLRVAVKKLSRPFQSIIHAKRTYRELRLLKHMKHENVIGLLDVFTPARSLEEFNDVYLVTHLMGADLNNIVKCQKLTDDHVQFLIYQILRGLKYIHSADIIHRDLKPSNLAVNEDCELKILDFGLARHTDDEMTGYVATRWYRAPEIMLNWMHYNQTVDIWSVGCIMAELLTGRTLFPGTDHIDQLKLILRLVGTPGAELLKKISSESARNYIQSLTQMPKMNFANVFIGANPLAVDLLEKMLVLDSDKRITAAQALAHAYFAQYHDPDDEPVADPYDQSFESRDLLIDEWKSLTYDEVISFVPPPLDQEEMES
Method: as §1

kinases in BCWM.1 cells [20] = biological target: kinases in BCWM.1 cells (Homo sapiens, UniProt Q16816); conditions: PHKg1; Protein Kinase Domain; 1 μM, 90 min; GF
Method: as §1

kinases in BCWM.1 cells [21] = biological target: kinases in BCWM.1 cells (Homo sapiens, UniProt Q8NEB9); conditions: PIK3C3; ATP; 1 μM, 90 min; GF
Method: as §1

kinases in BCWM.1 cells [22] = biological target: kinases in BCWM.1 cells (Homo sapiens, UniProt Q96BR1); conditions: SGK3; Lys1; 1 μM, 90 min; GF
Method: as §1

kinases in BCWM.1 cells [23] = biological target: kinases in BCWM.1 cells (Homo sapiens, UniProt Q9NYL2); conditions: ZAK; Lys1; 1 μM, 90 min; GF
Chain of kinases in BCWM.1 cells (Homo sapiens, UniProt Q9NYL2) (Q9NYL2 2-800 limits assumed): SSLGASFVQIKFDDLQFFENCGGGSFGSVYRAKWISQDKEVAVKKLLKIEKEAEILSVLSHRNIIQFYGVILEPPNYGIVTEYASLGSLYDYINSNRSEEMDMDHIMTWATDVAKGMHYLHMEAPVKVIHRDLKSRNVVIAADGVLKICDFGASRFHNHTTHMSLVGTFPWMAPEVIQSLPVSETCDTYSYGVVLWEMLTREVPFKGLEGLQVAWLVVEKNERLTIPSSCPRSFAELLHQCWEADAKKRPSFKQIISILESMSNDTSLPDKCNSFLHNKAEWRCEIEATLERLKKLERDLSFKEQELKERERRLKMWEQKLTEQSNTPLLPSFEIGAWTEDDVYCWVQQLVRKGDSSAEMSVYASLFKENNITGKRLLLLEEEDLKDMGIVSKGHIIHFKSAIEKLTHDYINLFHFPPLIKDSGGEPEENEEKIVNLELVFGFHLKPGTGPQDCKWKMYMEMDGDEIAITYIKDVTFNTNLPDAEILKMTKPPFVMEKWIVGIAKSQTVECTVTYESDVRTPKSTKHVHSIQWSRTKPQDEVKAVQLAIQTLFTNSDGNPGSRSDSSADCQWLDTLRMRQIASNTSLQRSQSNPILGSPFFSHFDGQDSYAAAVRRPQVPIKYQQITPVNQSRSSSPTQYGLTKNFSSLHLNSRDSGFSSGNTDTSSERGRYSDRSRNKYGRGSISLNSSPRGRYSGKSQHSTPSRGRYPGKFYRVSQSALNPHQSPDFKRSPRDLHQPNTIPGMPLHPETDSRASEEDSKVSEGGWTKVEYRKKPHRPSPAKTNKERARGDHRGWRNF
Method: as §1

kinases in BCWM.1 cells [24] = biological target: kinases in BCWM.1 cells (Homo sapiens, UniProt Q9UBF8); conditions: PI4KB; ATP; 1 μM, 90 min; GF
Chain of kinases in BCWM.1 cells (Homo sapiens, UniProt Q9UBF8) (Q9UBF8 2-816 limits assumed): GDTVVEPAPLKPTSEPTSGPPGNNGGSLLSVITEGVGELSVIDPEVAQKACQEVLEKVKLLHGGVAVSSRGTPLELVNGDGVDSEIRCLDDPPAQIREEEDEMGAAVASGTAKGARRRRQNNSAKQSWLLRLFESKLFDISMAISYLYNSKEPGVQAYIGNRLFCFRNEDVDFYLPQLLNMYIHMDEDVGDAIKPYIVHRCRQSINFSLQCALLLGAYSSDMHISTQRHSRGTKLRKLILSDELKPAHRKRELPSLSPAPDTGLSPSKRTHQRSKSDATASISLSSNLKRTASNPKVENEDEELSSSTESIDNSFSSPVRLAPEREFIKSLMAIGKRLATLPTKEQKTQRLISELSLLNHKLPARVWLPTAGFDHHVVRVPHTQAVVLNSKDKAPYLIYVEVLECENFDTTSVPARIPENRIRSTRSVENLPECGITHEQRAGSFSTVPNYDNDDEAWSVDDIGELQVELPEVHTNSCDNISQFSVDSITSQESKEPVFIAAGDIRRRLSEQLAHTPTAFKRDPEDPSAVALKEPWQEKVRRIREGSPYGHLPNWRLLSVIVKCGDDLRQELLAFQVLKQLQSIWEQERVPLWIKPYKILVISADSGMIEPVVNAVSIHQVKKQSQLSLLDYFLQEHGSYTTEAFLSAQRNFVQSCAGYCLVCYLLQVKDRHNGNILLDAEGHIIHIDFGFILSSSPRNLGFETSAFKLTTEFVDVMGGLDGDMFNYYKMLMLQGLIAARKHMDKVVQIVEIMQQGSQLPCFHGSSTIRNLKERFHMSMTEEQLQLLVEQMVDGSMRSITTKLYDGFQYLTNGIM
Method: as §1

kinases in BCWM.1 cells [25] = biological target: kinases in BCWM.1 cells (Homo sapiens, UniProt Q9UBS0); conditions: p70S6Kb; Lys2; 1 μM, 90 min; GF
Method: as §1

kinases in BCWM.1 cells [26] = biological target: kinases in BCWM.1 cells (Homo sapiens, UniProt Q9UHD2); conditions: TBK1; Lys1; 1 μM, 90 min; GF
Method: as §1

kinases in BCWM.1 cells [27] = biological target: kinases in BCWM.1 cells (Homo sapiens, UniProt Q9UKI8); conditions: TLK1; Lys2; 1 μM, 90 min; GF
Method: as §1

kinases in BCWM.1 cells [28] = biological target: kinases in BCWM.1 cells (Homo sapiens, UniProt Q9Y2H1); conditions: NDR2; Lys2; 1 μM, 90 min; GF
Chain of kinases in BCWM.1 cells (Homo sapiens, UniProt Q9Y2H1) (Q9Y2H1 2-464 limits assumed): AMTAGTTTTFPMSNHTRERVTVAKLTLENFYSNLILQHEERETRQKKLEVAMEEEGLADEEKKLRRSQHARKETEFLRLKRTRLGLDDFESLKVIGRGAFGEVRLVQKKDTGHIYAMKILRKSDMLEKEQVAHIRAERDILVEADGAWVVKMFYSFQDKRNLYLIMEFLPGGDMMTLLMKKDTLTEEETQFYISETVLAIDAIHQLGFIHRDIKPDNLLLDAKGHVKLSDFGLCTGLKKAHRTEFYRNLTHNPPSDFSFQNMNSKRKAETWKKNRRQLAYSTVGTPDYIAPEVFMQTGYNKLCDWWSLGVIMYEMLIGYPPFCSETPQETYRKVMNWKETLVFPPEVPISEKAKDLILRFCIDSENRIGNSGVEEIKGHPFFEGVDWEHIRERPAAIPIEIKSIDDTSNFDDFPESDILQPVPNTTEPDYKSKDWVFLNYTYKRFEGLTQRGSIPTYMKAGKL
Method: as §1

kinases in BCWM.1 cells [29] = biological target: kinases in BCWM.1 cells (Homo sapiens, UniProt Q9Y572); conditions: RIPK3; Lys2; 1 μM, 90 min; GF
Method: as §1

| SMILES | % change of MS signal compared to control sample (kinases in BCWM.1 cells [1]) [%] | % change of MS signal compared to control sample (kinases in BCWM.1 cells [2]) [%] | % change of MS signal compared to control sample (kinases in BCWM.1 cells [3]) [%] | % change of MS signal compared to control sample (kinases in BCWM.1 cells [4]) [%] | % change of MS signal compared to control sample (kinases in BCWM.1 cells [5]) [%] | % change of MS signal compared to control sample (kinases in BCWM.1 cells [6]) [%] | % change of MS signal compared to control sample (kinases in BCWM.1 cells [7]) [%] | % change of MS signal compared to control sample (kinases in BCWM.1 cells [8]) [%] | % change of MS signal compared to control sample (kinases in BCWM.1 cells [9]) [%] | % change of MS signal compared to control sample (kinases in BCWM.1 cells [10]) [%] | % change of MS signal compared to control sample (kinases in BCWM.1 cells [11]) [%] | % change of MS signal compared to control sample (kinases in BCWM.1 cells [12]) [%] | % change of MS signal compared to control sample (kinases in BCWM.1 cells [13]) [%] | % change of MS signal compared to control sample (kinases in BCWM.1 cells [14]) [%] | % change of MS signal compared to control sample (kinases in BCWM.1 cells [15]; RSK2 domain1) [%] | % change of MS signal compared to control sample (kinases in BCWM.1 cells [15]; RSK2 domain2) [%] | % change of MS signal compared to control sample (kinases in BCWM.1 cells [16]) [%] | % change of MS signal compared to control sample (kinases in BCWM.1 cells [17]) [%] | % change of MS signal compared to control sample (kinases in BCWM.1 cells [18]) [%] | % change of MS signal compared to control sample (kinases in BCWM.1 cells [19]; Lys2) [%] | also measured |
| --- | --- | --- | --- | --- | --- | --- | --- | --- | --- | --- | --- | --- | --- | --- | --- | --- | --- | --- | --- | --- | --- |
| C=CC(=O)N1CC[C@H](Nc2nccc(Nc3ncc(C(=O)Nc4c(C)cccc4C)s3)n2)C1 [Example I-3] | 39.1 | −3.5 | −2.5 | −8.2 | 4 | 96.7 | 22.3 | −17.6 | −51.5 | −5.5 | −6.5 | 39.9 | >91 | −1.1 | −15.5 | −16.5 | 0.9 | −19 | −29.4 | 70 | % change of MS signal compared to control sample (kinases in BCWM.1 cells [19]; Protein Kinase Domain): 67.9%; % change of MS signal compared to control sample (kinases in BCWM.1 cells [20]): −38.8%; % change of MS signal compared to control sample (kinases in BCWM.1 cells [21]): −0.8%; % change of MS signal compared to control sample (kinases in BCWM.1 cells [22]): −18.5%; % change of MS signal compared to control sample (kinases in BCWM.1 cells [23]): 21.2%; % change of MS signal compared to control sample (kinases in BCWM.1 cells [24]): −4.1%; % change of MS signal compared to control sample (kinases in BCWM.1 cells [25]): 6.8%; % change of MS signal compared to control sample (kinases in BCWM.1 cells [26]): −1.6%; % change of MS signal compared to control sample (kinases in BCWM.1 cells [27]): −6.9%; % change of MS signal compared to control sample (kinases in BCWM.1 cells [28]): −9.6%; % change of MS signal compared to control sample (kinases in BCWM.1 cells [29]): 22% |
| CCC(=O)N1CC[C@H](Nc2nccc(Nc3ncc(C(=O)Nc4c(C)cccc4C)s3)n2)C1 [Example I-9] | 12.7 | −6.6 | 1 | −1.7 | 13.9 | 86.1 | 5.3 | −3.8 | −8.6 | −16.8 | 8.6 | 18.5 | 40.8 | −6.1 | −8.4 | 1.6 | 4.3 | −4.1 | −0.9 | 9.8 | % change of MS signal compared to control sample (kinases in BCWM.1 cells [19]; Protein Kinase Domain): 8.7%; % change of MS signal compared to control sample (kinases in BCWM.1 cells [20]): −26.2%; % change of MS signal compared to control sample (kinases in BCWM.1 cells [21]): −9.4%; % change of MS signal compared to control sample (kinases in BCWM.1 cells [22]): −1.1%; % change of MS signal compared to control sample (kinases in BCWM.1 cells [23]): 12.1%; % change of MS signal compared to control sample (kinases in BCWM.1 cells [24]): −3.1%; % change of MS signal compared to control sample (kinases in BCWM.1 cells [25]): 3.1%; % change of MS signal compared to control sample (kinases in BCWM.1 cells [26]): 10.8%; % change of MS signal compared to control sample (kinases in BCWM.1 cells [27]): −2.3%; % change of MS signal compared to control sample (kinases in BCWM.1 cells [28]): 2.9%; % change of MS signal compared to control sample (kinases in BCWM.1 cells [29]): −27% |
